The record followed here is publication PMC7246999 (International Journal of Molecular Sciences, 2020).

The target in one data set is T1, hMPC-1 (Homo sapiens, UniProt Q9Y5U8).
T1 construct: HA tag (hemagglutinin, […]) (N); made in house; host or cells: Sf9 (Spodoptera frugiperda), baculovirus
T1 sequence (Q9Y5U8 1-109): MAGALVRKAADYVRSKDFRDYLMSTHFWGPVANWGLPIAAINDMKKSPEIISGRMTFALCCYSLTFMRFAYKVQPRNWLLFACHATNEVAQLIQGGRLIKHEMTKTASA
As to the kind of experiment: Fluorescence quenching binding assay, purified hMPC-1 homo-complex. The following applies: hMPC-1 in DDM micelles, room temperature, fluorescence at 338 nm, n = 3; read-out: Dissociation constant (Kd). Here is the method: (§1) In vitro fluorescence quenching was performed to measure the binding affinity of the purified hMPCs to their ligands, such as the pyruvate substrate and inhibitors, to validate their function (Figure 4). First, the equilibrium dissociation constants (Kd) of the hMPCs to pyruvate substrates were measured (Figure 4A,D).
(§2) A fluorescence analysis was performed using a LS55 spectrofluorophotometer at room temperature (Perkin Elmer, Waltham, MA, USA). The protein sample was prepared in buffer containing 50 mM Tris-HCl, 300 mM NaCl, and 0.05% DDM with a final concentration of 0.07 mg/ mL. […] Pyruvate was titrated to hMPC-1, hMPC-2, and hMPC-1/hMPC-2 up to 200mM concentrations. In the case of […], it was titrated to hMPC-1, hMPC-2, and hMPC-1/hMPC-2 up to 300uM, 200uM, 200uM concentrations, respectively. Pioglitazone was titrated to hMPC-1, hMPC-2, and hMPC-1/hMPC-2 up to 400uM, 500uM, and 400uM concentrations, respectively. All data were collected in the wavelength range of 270–450 nm (shown from 300 nm to 450 nm only) with a 1-min delay for each titration point. The dissociation constants were calculated by the maximum intensities in the 338 nm wavelength of each spectrum.

Another data set concerns the target T2, hMPC-2 (Homo sapiens, UniProt O95563).
T2 construct: HA tag (hemagglutinin, […]) (N, cleaved yes); 10x His tag (N, cleaved yes); made in house; host or cells: Sf9 (Spodoptera frugiperda), baculovirus
T2 sequence (O95563 1-127): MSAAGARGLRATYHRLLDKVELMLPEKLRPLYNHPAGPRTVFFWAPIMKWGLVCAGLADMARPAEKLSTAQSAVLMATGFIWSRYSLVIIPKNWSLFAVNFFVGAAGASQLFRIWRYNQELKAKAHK
As to the kind of experiment: Fluorescence quenching binding assay, purified hMPC-2 homo-complex. The following applies: hMPC-2 in DDM micelles, room temperature, fluorescence at 338 nm, n = 3; read-out: Dissociation constant (Kd). Here is the method: as §1, §2

The target of the next data set is T3, hMPC-1/hMPC-2 (Homo sapiens, UniProt O95563+Q9Y5U8).
T3 construct: HA tag (hemagglutinin, […]) (N); HA tag (hemagglutinin, […]) (N, cleaved yes); 10x His tag (N, cleaved yes); made in house; host or cells: Sf9 (Spodoptera frugiperda), baculovirus; proteins purified singly, mixed 1:1, then FLAG-resin
T3 sequence (Q9Y5U8 1-109): T1 sequence (Q9Y5U8 1-109)
T3 sequence (O95563 1-127): T2 sequence (O95563 1-127)
As to the kind of experiment: Fluorescence quenching binding assay, purified hMPC-1/hMPC-2 hetero-complex. The following applies: for Kd: hMPC-1/hMPC-2 in DDM micelles, room temperature, fluorescence at 338 nm, n = 3, read-out: Dissociation constant (Kd). Here is the method:
as §1, §2

Data set [1] concerns the molecule itself. Nature of the data set: SEC; analytical SEC, HiLoad 16/600 Superdex 200 pg, 50 mM Tris-HCl (pH 7), 300 mM NaCl, 0.05% (w/v) DDM, 1 mL/min; proteins run alone or mixed 1:1 (mass ratio) at room temperature for 1 h; fractions on SDS-PAGE.

With `CCc1ccc(CCOc2ccc(CC3SC(=O)NC3=O)cc2)nc1` (centres unmarked) [Pioglitazone], the dissociation constant (Kd) – broadly, the free concentration of one partner at which half of the binding sites on the other are occupied at equilibrium, for simple one-to-one binding – was 0.0841 ± 0.0103 mM on hMPC-1, 0.0993 ± 0.0145 mM at hMPC-2 and 0.0603 ± 0.00611 mM on hMPC-1/hMPC-2.
Turning to `CC(=O)C(=O)O` [Pyruvate], the Kd at hMPC-1 stood at 12 ± 0.77 mM; at hMPC-2, 12.9 ± 0.9 mM; on hMPC-1/hMPC-2, 8.91 ± 1.09 mM. The “Binding affinity of hetero-complex relative to homo-complex” value at hMPC-1/hMPC-2 (hMPC-1/hMPC-2 hetero-complex higher than homo-complex) was 1.5 fold.

B1: human mitochondrial pyruvate carrier 1 (hMPC-1), C-terminally tagged (natural protein, UniProt Q9Y5U8 1-109, looked up)
chain: T1 sequence (Q9Y5U8 1-109)
notes: human mitochondrial pyruvate carrier 1 (hMPC-1); Printed mass of His-hMPC-1: 15.9 kDa; also called His-hMPC-1; human MPC-1; source: Sf9 (baculovirus), purified in DDM (TALON IMAC, gel filtration); also co-expressed with hMPC-2 in Sf9 by co-infection; not shown: FLAG, C-terminal, kept; 10x His, C-terminal, kept
Take B1: in data set [1], the binding result was “binds”.
